Test results published in the CheMixHub viscosity set.
Values joined by “and” are separate entries in the source; they are usually repeats but may differ in a detail not shown here. Equal entries are not always repeated.

Legend:
[1] = xn = mol fraction of the nth substance listed

CC(=O)N(C(C)C)C(C)C
Conditions | viscosity [mPa·s]
298.16 K, 101 kPa | 2.18

CCCCCCC(=O)O
Conditions | viscosity [mPa·s]
298.15 K, 101 kPa | 3.784

CCCCCCCCCCCC(=O)OC
100 kPa
Conditions | viscosity
293.15 K | 3.12 mPa·s and 3.128 mPa·s
298.15 K | 2.778 mPa·s
303.15 K | 2.491 mPa·s
308.15 K | 2.25 mPa·s
318.15 K | 1.877 mPa·s
323.15 K | 1.712 mPa·s and 1.717 mPa·s

CCCCCCCCCCCCBr
101 kPa
Conditions | viscosity [mPa·s]
298.08 K | 3.373
303.1 K | 3.024
308.11 K | 2.689
313.11 K | 2.437

CCCCCCCCn1cc[n+](C)c1.[Cl-]
101 kPa
Conditions | viscosity [mPa·s]
313.15 K | 4062
323.15 K | 2043

CCCCCC[N+](CC)(CC)CC.O=S(=O)([N-]S(=O)(=O)C(F)(F)F)C(F)(F)F
100 kPa
Conditions | viscosity [mPa·s]
293.15 K | 241.4
313.15 K | 80.71

CCCCCC[n+]1ccn(C)c1.O=S(=O)([O-])C(F)(F)F
100 kPa
Conditions | viscosity [mPa·s]
293.15 K | 194.9
298.15 K | 150.8
303.15 K | 115.7
308.15 K | 91.13
313.15 K | 74.03

CCOC(C)=O
Conditions | viscosity
296 K, 101.3 kPa | 0.437 mPa·s
298 K, 101.3 kPa | 0.439 mPa·s and 0.439 mPa·s
298.15 K, 100 kPa | 0.42 mPa·s and 0.42 mPa·s
298.15 K, 101.3 kPa | 0.4407 mPa·s (2×) and 0.439 mPa·s
298.15 K, 101.33 kPa | 0.457 mPa·s and 0.424 mPa·s and 0.424 mPa·s
303.15 K, 101.3 kPa | 0.4178 mPa·s and 0.4178 mPa·s
308.15 K, 101.3 kPa | 0.3972 mPa·s and 0.3972 mPa·s
313.15 K, 101.3 kPa | 0.376 mPa·s and 0.376 mPa·s
313.15 K, 101.32 kPa | 0.369 mPa·s
313.15 K, 101.33 kPa | 0.368 mPa·s
318 K, 101.3 kPa | 0.3829 mPa·s
318 K, 101.33 kPa | 0.3829 mPa·s
318.15 K, 101.3 kPa | 0.358 mPa·s
318.15 K, 101.33 kPa | 0.35 mPa·s
323.15 K, 100 kPa | 0.3053 mPa·s
323.15 K, 101 kPa | 0.341 mPa·s and 0.327 mPa·s and 0.3356 mPa·s
323.15 K, 101.3 kPa | 0.3407 mPa·s and 0.3407 mPa·s

CCOc1ccccc1
viscosity
Conditions | 101 kPa | 101.3 kPa | 101.33 kPa
293.15 K | 1.222 mPa·s and 1.27 mPa·s | 1.366 mPa·s | 1.231 mPa·s
293.35 K | 1.24 mPa·s | – | –
298 K | – | – | 1.164 mPa·s
302.75 K | 1.03 mPa·s | – | –
303 K | – | – | 1.068 mPa·s
303.15 K | 1.038 mPa·s and 1.05 mPa·s | – | 1.036 mPa·s
308 K | – | – | 0.983 mPa·s
308.15 K | 0.978 mPa·s | 0.9842 mPa·s | –
313.15 K | 0.901 mPa·s and 0.875 mPa·s | – | 0.894 mPa·s
318.15 K | 0.839 mPa·s | 0.8284 mPa·s | –
323.15 K | 0.782 mPa·s | – | –

CC[NH+](CC)CC.O=S(=O)([O-])O
101 kPa
Conditions | viscosity
303.15 K | 153 mPa·s and 153 mPa·s
308.15 K | 138 mPa·s and 138 mPa·s
313.15 K | 108 mPa·s

COC(=O)CC(C)=O
101.3 kPa
Conditions | viscosity
298.15 K | 1.566 mPa·s and 1.564 mPa·s and 1.564 mPa·s
303.15 K | 1.422 mPa·s and 1.421 mPa·s and 1.421 mPa·s
308.15 K | 1.298 mPa·s and 1.298 mPa·s

COCCOCC[n+]1ccn(CCC#N)c1.O=S(=O)([N-]S(=O)(=O)C(F)(F)F)C(F)(F)F
101.33 kPa
Conditions | viscosity [mPa·s]
293.15 K | 296.5
303.15 K | 169
313.15 K | 103.2
323.15 K | 74.62

COc1ccc(C=O)cc1
101 kPa
Conditions | viscosity
303.15 K | 3.251 mPa·s and 3.578 mPa·s and 3.251 mPa·s
308.15 K | 3.131 mPa·s and 3.035 mPa·s and 3.131 mPa·s
313.15 K | 2.961 mPa·s and 2.649 mPa·s and 2.961 mPa·s
318.15 K | 2.682 mPa·s and 2.34 mPa·s and 2.682 mPa·s

CS(=O)(=O)[O-].C[N+](C)(CCO)CCO
101.33 kPa
Conditions | viscosity [mPa·s]
298.15 K | 1495
303.15 K | 1021
308.15 K | 716.3
313.15 K | 513.1
318.15 K | 377.6
323.15 K | 282.4

Clc1cccc(Cl)c1
viscosity
Conditions | 298.15 K | 303.15 K | 308.15 K | 313.15 K | 318.15 K
100 kPa | 1.017 mPa·s | 0.945 mPa·s | 0.895 mPa·s and 0.906 mPa·s | 0.849 mPa·s | 0.799 mPa·s and 0.809 mPa·s
101 kPa | – | 0.949 mPa·s and 0.945 mPa·s | 0.895 mPa·s and 0.895 mPa·s | 0.849 mPa·s | 0.799 mPa·s

OCC(O)CO
Conditions | viscosity
293.15 K, 100 kPa | 1360 mPa·s
294 K, 101 kPa | 1390 mPa·s
298 K, 101 kPa | 946.5 mPa·s
298.15 K, 100 kPa | 860 mPa·s
298.15 K, 101.33 kPa | 803.7 mPa·s
303 K, 101 kPa | 611.3 mPa·s and 409.6 mPa·s
303.15 K, 100 kPa | 542 mPa·s
308 K, 101 kPa | 413.9 mPa·s
308.15 K, 101 kPa | 405.8 mPa·s
308.15 K, 101.33 kPa | 351.5 mPa·s
313 K, 101 kPa | 285.5 mPa·s
313.15 K, 100 kPa | 217 mPa·s
313.15 K, 101 kPa | 231 mPa·s and 284 mPa·s and 289.4 mPa·s
318 K, 101 kPa | 213.7 mPa·s
318.15 K, 101 kPa | 182.5 mPa·s and 176.2 mPa·s
318.15 K, 101.33 kPa | 157.1 mPa·s
323 K, 101 kPa | 141 mPa·s
323.15 K, 101 kPa | 142 mPa·s and 153.8 mPa·s

[O-][Cl+3]([O-])([O-])O[Cl+3]([O-])([O-])[O-]
Conditions | viscosity [mPa·s]
293.15 K, 101.33 kPa | 0.698

CCCCCCC(=O)O + c1ccccc1
[1], 298.15 K, 101 kPa
Conditions | viscosity [mPa·s]
x1 = 0.03 | 0.631
x1 = 0.063 | 0.666
x1 = 0.096 | 0.705
x1 = 0.13 | 0.752
x1 = 0.29 | 0.99
x1 = 0.38 | 1.168
x1 = 0.47 | 1.49
x1 = 0.71 | 2.3

CCOC(C)=O + c1ccccc1
[1]
Conditions | viscosity [mPa·s]
298 K, 101.3 kPa, x2 = 0.1715 | 0.478
298 K, 101.3 kPa, x2 = 0.3251 | 0.489
298 K, 101.3 kPa, x2 = 0.5324 | 0.507
298 K, 101.3 kPa, x2 = 0.6702 | 0.534
298 K, 101.3 kPa, x2 = 0.8535 | 0.57
298.15 K, 101 kPa, x1 = 0.0447 | 0.588
298.15 K, 101 kPa, x1 = 0.1505 | 0.556
298.15 K, 101 kPa, x1 = 0.2473 | 0.5181
298.15 K, 101 kPa, x1 = 0.2482 | 0.531
298.15 K, 101 kPa, x1 = 0.3049 | 0.499
298.15 K, 101 kPa, x1 = 0.3312 | 0.499
298.15 K, 101 kPa, x1 = 0.351 | 0.507
298.15 K, 101 kPa, x1 = 0.4099 | 0.483
298.15 K, 101 kPa, x1 = 0.4481 | 0.489
298.15 K, 101 kPa, x1 = 0.453 | 0.4803
298.15 K, 101 kPa, x1 = 0.461 | 0.4782
298.15 K, 101 kPa, x1 = 0.4981 | 0.48
298.15 K, 101 kPa, x1 = 0.5495 | 0.472
298.15 K, 101 kPa, x1 = 0.6517 | 0.458
298.15 K, 101 kPa, x1 = 0.7368 | 0.4446
298.15 K, 101 kPa, x1 = 0.7524 | 0.446
298.15 K, 101 kPa, x1 = 0.8551 | 0.437
298.15 K, 101 kPa, x1 = 0.9445 | 0.431
298.15 K, 101 kPa, x2 = 0.1725 | 0.442
298.15 K, 101 kPa, x2 = 0.5441 | 0.487
298.15 K, 101 kPa, x2 = 0.826 | 0.551
308.15 K, 101 kPa, x1 = 0.0447 | 0.515
308.15 K, 101 kPa, x1 = 0.1505 | 0.492
308.15 K, 101 kPa, x1 = 0.2482 | 0.472
308.15 K, 101 kPa, x1 = 0.351 | 0.455
308.15 K, 101 kPa, x1 = 0.4481 | 0.44
308.15 K, 101 kPa, x1 = 0.4981 | 0.433
308.15 K, 101 kPa, x1 = 0.5495 | 0.426
308.15 K, 101 kPa, x1 = 0.6517 | 0.415
308.15 K, 101 kPa, x1 = 0.7524 | 0.405
308.15 K, 101 kPa, x1 = 0.8551 | 0.396
308.15 K, 101 kPa, x1 = 0.9445 | 0.39
318 K, 101.3 kPa, x2 = 0.1624 | 0.3894
318 K, 101.3 kPa, x2 = 0.3233 | 0.3971
318 K, 101.3 kPa, x2 = 0.5251 | 0.4129
318 K, 101.3 kPa, x2 = 0.671 | 0.4287
318 K, 101.3 kPa, x2 = 0.8633 | 0.4505

CCOc1ccccc1 + c1ccccc1
viscosity [mPa·s], [1], 101.33 kPa
Conditions | 298.15 K | 323.15 K
x1 = 0.2 | 0.68 | 0.49
x1 = 0.5 | 0.823 | 0.576
